Assay [1] relates to bovine corneal endothelial cells (BCEC). Briefly: Stimulation of BCEC DNA synthesis by recombinant peptide growth factors (tritiated thymidine). Type of assay: cell-based. The settings on record: for Relative potency as mitogen for BCEC (in words): absence of other added serum components, ten peptide growth factors compared, EGF first, TGF-α second; for Stimulation of DNA synthesis of BCEC (in words): serum-free CDM, FIG. 5. On the procedure:
Pure cultures of BCEC were established from freshly obtained cow eyes by trypsin treatment of the endothelial surface. Early passage cultures were trypsinized and seeded into 24 well plates as described above. After the cells had been synchronized by serum deprivation, BCEC were cultured in CDM containing tritiated thymidine and solutions of peptide growth factors produced by recombinant DNA technology. Radioactivity incorporated into DNA was measured as described previously.

In a further assay the test system is fibroblasts. The settings on record: in vitro; Haigler & Carpenter 1980; cited from earlier work.
For assay [2], the system named is endothelial cell division. The experiment in a line: Intraocular injection of TGF-α solution in a patient with endothelium failure. Type of assay: in vivo. Conditions: 100 μg/ml in buffered saline, 0.1 ml per injection into the anterior chamber, single or series. On the procedure: A patient is diagnosed as requiring a corneal implant due to endothelium failure as a result of such conditions as Fuch's dystrophy or a marginal endothelial count either prior to or after cataract surgery. As an alternative to transplant surgery, the patient undergoes a single or series of intraocular injections of a solution of TGF-α in buffered saline. The concentration of the TFG-α is 100 μg/ml and 0.1 ml of solution are injected into the anterior chamber per injection.

“Also recorded” adds a separate entry of the source.

epidermal growth factor [EGF]: the “Relative potency as mitogen for BCEC (in words)” value in assay [1] was “second only to EGF in potency”. In addition, the “Minimum exposure time to induce fibroblasts to divide” value with fibroblasts was not below 6 h.

With multiplication stimulating activity, the “Stimulation of DNA synthesis of BCEC (in words)” value in assay [1] is “failed to stimulate DNA synthesis”. The same measure, in the same setting: the same measure for nerve growth factor: “failed to stimulate DNA synthesis”; for platelet-derived growth factor: “failed to stimulate DNA synthesis”. As to “transforming growth factor alpha [TGF-α]”, the “Relative potency as mitogen for BCEC (in words)” value in assay [1] is “very potent mitogen for BCEC; also recorded: potent mitogen”. In addition, the “Effect of injections on endothelial cell division” value in assay [2] is reported as “enhance endothelial cell division”.

Values taken from patent US5310728A, “Method for treating corneal endothelial wounds” (Chiron Ophthalmics, Inc., priority 1992, dated 1994).
